Results as given in patent US20240382516A1, “PHARMACEUTICAL COMPOSITION FOR INCREASING MITOCHONDRIAL ACTIVITY AND/OR IMPROVING ADIPONECTIN PRODUCTION” (LOGICK ENERGETICS B.V., priority 2021, published 2024).

Experiments:
Format in all cases: cell-based
Ppargc1a = Ppargc1a log2Foldchanges, RNA isolated from stimulated KS-cells; settings: for effect on changes in Ppargc1a activity (in words): 3 and 7 days stimulation
From the text: Therein A=pentosan, B-indomethacin, and C=pioglitazone. The RNA is isolated after 3 and 7 days stimulation in KS-cells, respectively. Ppargcla is considered particularly relevant for mitochondrial activity. A higher value represents a higher activity.

[1] = tested on: Adiponectin gene expression in 3T3-L1 cells; assay: qPCR adiponectin gene expression in 3T3-L1 cells; settings: 72 hours incubation, A 5.0 μg/ml, B 50 μM, C 1.0 μM
Description: • DMEM • 10% heat inactivated FCS • Compound A—5.0 μg/ml • Compound B-50 μM • Compound C-1.0 μM • Compound A+B • Compound A+C Protocol 3T3-L1 cell line • DMEM • 10% heat inactivated FCS • Compound A-[…] • Compound B-50 μM • Compound C-1.0 μM • Compound A+B • Compound A+C
In the of presence of: • 0.25 μM Dexamethasone & • 1 μg/ml Insulin • Therein A=pentosan, B=indomethacin, and C=pioglitazone.
Cells were stimulated at day 4 when they were sub confluent. After 72 hours of incubation, RNA was isolated from the cells.

[2] = tested on: Nduf family of sub-unit proteins of mitochondrial complex 1; assay: Gene expression Log2fold change, Nduf family, KS483 cells; settings: 7 days of stimulation
[3] = tested on: Cox family of sub-unit proteins of mitochondrial complex 4; assay: Gene expression Log2fold change, Cox family, KS483 cells; settings: 7 days of stimulation

Molecule | Nduf4 0 Log2fold change [2] | Ndufa5 Log2fold change [2] | Ndufa9 Log2fold change [2] | Ndufa10 Log2fold change [2] | Ndufab1 Log2fold change [2] | Ndufaf7 Log2fold change [2] | Ndufb3 Log2fold change [2] | Ndufb4 Log2fold change [2] | Ndufb9 Log2fold change [2] | Ndufb10 Log2fold change [2] | Ndufc1 Log2fold change [2] | Ndufs10 Log2fold change [2] | Ndufs20 Log2fold change [2] | Ndufv1 Log2fold change [2] | Ndufv3 Log2fold change [2] | COX4iL Log2fold change [3] | COX5a Log2fold change [3] | COX5b Log2fold change [3] | COX6b1 Log2fold change [3] | COX7a2L Log2fold change [3] | also measured
COc1ccc2c(c1)c(CC(=O)O)c(C)n2C(=O)c1ccc(Cl)cc1 [Compound B, indomethacin] | 0 | 0 | 0 | 0 | 0 | 0 | 0 | 0 | 0 | 0 | 0 | 0 | 0 | 0 | 0 | 0 | 0 | 0 | 0 | 0 | effect on changes in Ppargc1a activity (in words) (Ppargc1a): no measurable effect; effect on Adiponectin gene expression (FIG. 1) [1]: show adiponectin gene expression; COX8a Log2fold change [3]: 0; COX15 Log2fold change [3]: 0; COX17 Log2fold change [3]: 0; COX19 Log2fold change [3]: 0; COX20 Log2fold change [3]: 0
CCc1ccc(CCOc2ccc(CC3SC(=O)NC3=O)cc2)nc1 (stereo not drawn) [Compound C, pioglitazone] | 0 | 0.57 | 0 | 0 | 0 | 0.35 | 0 | 0 | 0 | 0 | 0 | 0 | 0 | 0 | 0 | 0 | 0 | 0 | 0 | 0 | COX8a Log2fold change [3]: 0; COX15 Log2fold change [3]: 0; COX17 Log2fold change [3]: 0; COX19 Log2fold change [3]: 0; COX20 Log2fold change [3]: 0
pentosan polysulphate [Compound A] | 0 | 0 | 0 | 0 | 0 | 0 | 0 | 0 | 0 | 0 | 0 | 0 | 0 | 0 | 0 | 0 | 0.31 | 0 | 0 | −0.42 | effect on changes in Ppargc1a activity (in words) (Ppargc1a): some effect; Ppargc1a log2Foldchanges (Ppargc1a; 3 days stimulation): 1.14; Ppargc1a log2Foldchanges (Ppargc1a; 7 days stimulation): 1.3; effect on Adiponectin gene expression (FIG. 1) [1]: hardly any effect; COX8a Log2fold change [3]: 0; COX15 Log2fold change [3]: 0; COX17 Log2fold change [3]: 0; COX19 Log2fold change [3]: 0; COX20 Log2fold change [3]: 0
